PMC7557804, “The Anti-Microbial Peptide (Lin-SB056-1)2-K Reduces Pro-Inflammatory Cytokine Release through Interaction with Pseudomonas aeruginosa Lipopolysaccharide” (Antibiotics, 2020)

What was measured:
Type in all cases: cell-based, Human
A549 cells [1] = test: Cytotoxicity (LDH release) towards A549 cells; details: LPS-stimulated A549, 4 h
Method: (§1) Human non-small-cell lung adenocarcinoma A549 cells (ATCC CCL-185; LGC Standards, Milan, Italy) and human monocytic THP-1 cells (ATCC TIB-202; LGC Standards) were cultured in tissue culture flasks in Dulbecco’s modified essential medium (DMEM) (Euroclone, Milan, Italy) and RPMI 1640 medium (Euroclone), respectively. Both media were supplemented with 2 mM L-glutamine (Euroclone) and 10% heat-inactivated fetal bovine serum (FBS; Euroclone). Confluent monolayers were detached from the culture flask with 0.25% trypsin/1 mM EDTA solution (Euroclone), suspended in complete culture medium and seeded into flat-bottom 96-well plates at a final density of 1 × 10^4 cells/well (A549) and 2 × 10^4 cells/well (THP-1). A549 cells were cultured for 24 h at 37 °C, 5% CO2 in order to allow adhesion and formation of semi-confluent monolayers. THP-1 cells were cultured for 3 days (37 °C, 5% CO2) in the presence of 100 nM TPA (Sigma-Aldrich, St. Louis, MO, USA) to induce their differentiation into macrophage-like cells.
The cytotoxicity of lin-SB056-1 and (lin-SB056-1)2-K towards A549 and THP-1 cells was evaluated to exclude a possible correlation between reduction in cytokine levels and decrease in cell numbers. To this end, culture supernatants of cells stimulated with LPS in the presence of the peptides were employed to quantify the amount of cytoplasmic LDH released by dead cells. Cells incubated in culture medium alone or in the presence of LPS served as an indication of spontaneous cell death (cell viability controls), while cells treated with a commercial lysis buffer (Pierce LDH cytotoxicity assay kit, Thermo Fisher Scientific) were used as cell death control (100% cell lysis). The enzymatic activity of LDH in cell supernatants was measured using the Pierce LDH cytotoxicity assay kit (Thermo Fisher Scientific) following manufacturer’s instructions. The cytotoxic effect was determined as follows: cytotoxicity (%) = [(LDH activity of A/LDH activity of B) × 100], where A represents peptide-treated or untreated cells (both in the presence and absence of LPS), and B corresponds to the cell lysis control.

A549 cells [2] = test: LPS-induced cytokine production by A549 cells (bead-based multiplex immunoassay); details: 4 h, 37 °C
Method: as §1
(§2) The anti-inflammatory potential of lin-SB056-1 and (lin-SB056-1)2-K was assessed by evaluating their ability to reduce LPS-induced production of pro-inflammatory cytokines by A549 cells and THP-1 macrophages. In order to ensure cytokine production, cell monolayers were stimulated with LPS from P. aeruginosa serotype 10 (purified by phenol extraction; Sigma-Aldrich, Milano, Italy) at a final concentration of 10 ng/mL (THP-1) and 800 ng/mL (A549). LPS concentrations used in the experiments were chosen based on preliminary assays aimed at identifying the minimum dose of the molecule able to stimulate cytokine production after 4 h of exposure. In order to assess the inhibitory activity of peptides on cytokine production, cell monolayers were incubated in complete culture medium in the presence of LPS and different concentrations of lin-SB056-1 and (lin-SB056-1)2-K (4.8 to 19.25 μM) for 4 h (37 °C, 5% CO2). Cells incubated in the presence of LPS alone were used as positive (cytokine production) control. Following incubation, cell culture supernatants were collected, filter sterilized (0.22 µm) and employed for the quantification of cytokines and the assessment of cell viability.
Different pro-inflammatory cytokines (i.e., IL-1β, IL-6, IL-8 and TNF-α) were quantified in cell culture supernatants through a bead-based multiplex immunoassay (LEGENDplex multi-analyte flow assay kit; BioLegend, San Diego, CA, USA) following manufacturer’s instructions. Briefly, 25 μL of cytokine standard or cell supernatant were incubated with 25 μL of anti-cytokine conjugated beads into V-bottom 96-well plates for 2 h. Following incubation, the plates were washed and subsequently incubated with the detection antibody (25 μL/well) for 1 h. A volume of 25 μL of streptavidin-phycoerythrin was added to each well, and the plates were incubated for another 30 min in the dark. Following consecutive washing steps, the beads were resuspended in the LEGENDplex wash buffer and the samples were analyzed by flow cytometry (BD Accuri C6 flow cytometer; BD Biosciences, Mountain View, CA, United States). Data were acquired with the BD Accuri C6 software (BD Biosciences) (300 events per analyte) and analyzed with the LEGENDplex software (BioLegend). Minimum detectable concentration (MDC+2STDEV) for the tested cytokines were as follows: IL-1β, 0.65 + 0.47 pg/mL; IL-6, 0.97 + 1.46 pg/mL; IL-8, 1.90 + 0.65 pg/mL; TNF-α, 0.88 + 0.27 pg/mL.

[3] = tested on: lung epithelial- and macrophage-cell lines stimulated with P. aeruginosa LPS; test: LPS-induced production of pro-inflammatory cytokines, overall result
Method: as §2, with “In order to assess the inhibitory activity of peptides on cytokine production, cell monolayers were incubated in complete culture medium in the presence of LPS and different concentrations of lin-SB056-1 and (lin-SB056-1)2-K (4.8 to 19.25 μM) for 4 h (37 °C, 5% CO2). Cells incubated in the presence of LPS alone were used as positive (cytokine production) control.” left out
Different pro-inflammatory cytokines (i.e., IL-1β, IL-6, IL-8 and TNF-α) were quantified in cell culture supernatants through a bead-based multiplex immunoassay (LEGENDplex multi-analyte flow assay kit; BioLegend, San Diego, CA, USA) following manufacturer’s instructions. […] Following consecutive washing steps, the beads were resuspended in the LEGENDplex wash buffer and the samples were analyzed by flow cytometry (BD Accuri C6 flow cytometer; BD Biosciences, Mountain View, CA, United States). […]

[4] = 9.6 μM peptide, P. aeruginosa serotype 10 LPS 800 ng/mL, 5% CO2, complete culture medium, mean of at least three independent experiments, vs peptide-untreated control

Substance: [KWKIRVRLSA]2-K [(lin-SB056-1)2-K, dendrimeric derivative of lin-SB056-1]
- cell death (LDH release), with LPS (A549 cells [1]; up to 19.25 μM (highest tested), 37 °C, 5% CO2, relative to cell lysis control, at least three independent experiments): less than 5%
- toxicity (A549 cells [1]; up to 19.25 μM, LDH release): no detectable toxicity
- reduction of IL-6 levels (A549 cells [2]; [4]): ≤ 80%
- reduction of IL-8 levels (A549 cells [2]; [4]): ≤ 80%
- effect on IL-6 release (A549 cells [2]; LPS 800 ng/mL, peptide 4.8 to 19.25 μM): significant reduction
- effect on IL-8 release (A549 cells [2]; LPS 800 ng/mL, peptide 4.8 to 19.25 μM, lin-SB056-1 decrease at 19.25 μM (highest tested)): significant reduction
- anti-inflammatory effect compared to monomeric counterpart ([3]; LPS and/or P. aeruginosa stimulation): superior anti-inflammatory effect compared to its monomeric counterpart
- decrease in LPS-induced production of pro-inflammatory cytokines (IL-1β, IL-6 and IL-8) ([3]; lung epithelial- and macrophage-cell lines, P. aeruginosa LPS): up to 80%
